This is an account of results in patent US20070105160A1, “Detection of intracellular enzyme complex” (DiscoveRx, priority 2005, published 2007).

In test [1] the target is glucocorticoid receptor (GR). Briefly: PathHunter GR translocation EFC assay, antagonist mode (pre-incubation before agonist). Type of test: cell-based, human. Particulars: pre-incubated 1 hour. The procedure:
(§1) • 5 mM Potassium phosphate (dibasic) • 5 mM Potassium phosphate (monobasic) • 150 mM Sodium Chloride • 10 mM Magnesium Acetate • 2% CHAPS • pH6.9 Reagent Buffer/Substrate Formulation/Mixture Used in the Assay: • 1 part Galacton Star (ABI) • 5 parts Emerald II enhancer (ABI) • 19 parts Lysis buffer with 2% CHAPS (DX) Assay Protocol (96 Well Assay Format) • 1. 10,000 CHO-EA+GR-PL cells/well in a volume of 100 μL are plated in a Costar 96 well white, clear bottom plate and allowed to adhere overnight at 37° C./5% CO2 in an incubator. • 2. […] The reaction is incubated for 3-4 hours in a 37° C./5% CO2 incubator. • 4. To the reaction, equal aliquots from 50 mL of reagent solution are added to the wells. • 5. The plate is read on a standard multiwell plate reader that can measure luminescent activity. (e.g., Wallac Victor II or Packard Lumicount) after 30 and 60 minutes.
The glucocorticoid receptor (GR) was subcloned by using a pCMV-GR-PL construct generated by Panomics, Inc. as pcr template, adding Bgl 2 and Kpn I sites at the 5′ and 3′ ends respectively. The GR sequence was based on and confirmed to match the RefSeq NM_000176 for the human GR. […] This plasmid was transiently transfected into a stable CHO-K1+EA-NLS/NRS expressing cell line. Clonal selection for cells expressing both EA-NLS/NRS and GR-PL was performed as described above except the cells were subjected to double antibiotic selection (hygromycin and Geneticin/G418).
(§2) 10,000 cells/well were plated in a white Costar® 96 well plate and allowed to adhere overnight. […] To the reaction, 50 μL of cell lysis/substrate solution was added and the plate was read in a Wallace Victor 2 plate reader after 60 minutes. […] Antagonist studies were also performed using titrating amounts of geldenamycin (1-1000 nM) pre-incubated with the PathHunter cells for 1 hour prior to being treated with an agonist (at the EC80 concentration) for 3 hours and the EFC activity was measured.

Test [2] concerns the target T1, glucocorticoid receptor (GR) (Homo sapiens, UniProt P04150).
T1 construct: expressed in transfected cells; host or cells: CHO-K1 stably expressing EA-NLS/NRS (CHO-EA+GR-PL, 'PathHunter' cells)
T1 sequence (P04150 1-777): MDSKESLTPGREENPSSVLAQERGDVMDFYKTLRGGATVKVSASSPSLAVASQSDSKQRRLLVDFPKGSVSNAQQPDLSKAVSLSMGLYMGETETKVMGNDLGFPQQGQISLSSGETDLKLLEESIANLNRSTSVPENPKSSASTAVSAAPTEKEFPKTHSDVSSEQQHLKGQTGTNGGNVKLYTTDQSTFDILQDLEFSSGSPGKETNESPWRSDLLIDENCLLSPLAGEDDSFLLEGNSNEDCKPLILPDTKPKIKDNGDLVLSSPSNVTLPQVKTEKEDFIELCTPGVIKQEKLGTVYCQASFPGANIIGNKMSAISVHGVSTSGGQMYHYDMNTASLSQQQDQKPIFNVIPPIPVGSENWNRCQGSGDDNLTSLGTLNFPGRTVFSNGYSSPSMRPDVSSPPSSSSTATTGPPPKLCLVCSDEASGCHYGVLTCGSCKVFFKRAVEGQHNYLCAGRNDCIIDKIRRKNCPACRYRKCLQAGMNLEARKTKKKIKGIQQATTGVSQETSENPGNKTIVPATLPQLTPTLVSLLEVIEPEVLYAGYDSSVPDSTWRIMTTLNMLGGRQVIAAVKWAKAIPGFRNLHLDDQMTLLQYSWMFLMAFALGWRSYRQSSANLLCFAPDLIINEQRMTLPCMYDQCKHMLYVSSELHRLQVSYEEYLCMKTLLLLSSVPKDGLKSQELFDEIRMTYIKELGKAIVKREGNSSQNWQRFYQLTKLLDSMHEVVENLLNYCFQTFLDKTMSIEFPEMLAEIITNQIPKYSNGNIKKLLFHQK
Briefly: PathHunter GR translocation EFC assay, agonist mode, chemiluminescent detection. Particulars: CHO-EA+GR-PL (PathHunter) cells, agonist 3 hours, plate read after 60 minutes, FIG. 1. Type of test: cell-based. The procedure: as §1, with “minutes. […]” for “minutes.”
as §2

The IC50 is the concentration that gives 50% inhibition. A higher IC50 goes with weaker potency. Regarding `COC1=C2C[C@@H](C)C[C@H](OC)[C@H](O)[C@@H](C)/C=C(\C)[C@H](OC(N)=O)[C@@H](OC)/C=C\C=C(/C)C(=O)NC(=CC1=O)C2=O` [geldenamycin], the concentration for half-maximal inhibition (IC50) in test [1] (then 1 μM hydrocortisone as agonist for 3 hours) amounted to 23.8 nM; in test [1] (then 1 μM prednisolone as agonist for 3 hours), 22.3 nM; in test [1] (then dexamethasone treatment (EC80 concentration) for 3 hours, FIG. 2), 11.6 nM.
By EC50 is commonly meant the midpoint of the concentration-response curve. Low readings indicate an effect from little substance, high ones a need for much substance. Take `C[C@]12C=CC(=O)C=C1CC[C@H]1[C@@H]3C[C@@H](O)[C@](O)(C(=O)CO)[C@@]3(C)C[C@H](O)[C@@]12F` [triamcinolone]: in test [2], the midpoint of the response, the EC50, lay at 62.9 nM.
